Reference: publication PMC9610943, “Truncated Pleurocidin Derivative with High Pepsin Hydrolysis Resistance to Combat Multidrug-Resistant Pathogens” (Pharmaceutics, 2022)
Where no end group is shown, it is not given here.

Legend:
[1] = tested on: MRSA T144; assay: microbe, parasite or virus in culture; format: cell-based, Staphylococcus aureus; conditions: T144
Method: (§1) S. aureus ATCC 29213, E. coli ATCC 25922, S. enteritidis ATCC 13076 and A. baumannii ATCC 19609 were obtained from the American Type Culture Collection (ATCC). The remaining strains used in the experiment were all preserved strains in our laboratory. All strains were cultured in nutrient broth overnight to the logarithmic phase at 37 °C prior to each experiment.
(§2) The MICs of all drugs were determined by micro-broth dilution method according to CLSI 2018 guidelines. Briefly, a single colony of the bacterial strain was transferred to 1 mL of Mueller Hilton broth (MHB) and overnight at 37 °C and then 10 μL were cultured in a new 1 mL medium for 4 to 6 h, and then the bacterial culture at the logarithmic phase was diluted to 1 × 10^6 CFUs/mL. The assay was performed by adding 100 μL of each peptide solution at various concentrations (0.25 to 128 μg/mL) and 100 μL of diluted bacterial culture to different wells of a 96-well microtiter plate (Corning, NY, USA). After incubation at 37 °C for 16 to 18 h and then read its MIC value. MIC value is defined as the lowest drug concentration without visible bacteria.

[2] = tested on: MRSA 1530; assay: microbe, parasite or virus in culture; format: cell-based, Staphylococcus aureus; conditions: 1530
Method: as §1, §2

[3] = tested on: P. cibarius HNCF44W (blaNDM-1+ tet(X6)); assay: organism not typed; format: cell-based
Method: as §1, §2

[4] = tested on: E. faecalis A4 (VRE, VanA); assay: microbe, parasite or virus in culture; format: cell-based; conditions: A4 (VRE, VanA)
Method: as §1, §2

[5] = tested on: E. coli C3 (blaNDM-1); assay: microbe, parasite or virus in culture; format: cell-based; conditions: C3 (blaNDM-1)
Method: as §1, §2

[6] = tested on: E. coli 1F28 (tet(X4)); assay: microbe, parasite or virus in culture; format: cell-based; conditions: 1F28 (tet(X4))
Method: as §1, §2

[7] = tested on: P. aeruginosa PA14; assay: microbe, parasite or virus in culture; format: cell-based; conditions: PA14
Method: as §1, §2

[8] = tested on: S. aureus 215 (cfr + LZD^R); assay: microbe, parasite or virus in culture; format: cell-based; conditions: S. aureus 215 (cfr + LZD^R); micro-broth dilution CLSI 2018, MHB, 37 °C, 16 to 18 h
Method: as §1, §2

[9] = tested on: E. coli B3-1 (tet(X4)); assay: microbe, parasite or virus in culture; format: cell-based; conditions: B3-1 (tet(X4))
Method: as §1, §2

[10] = tested on: P. aeruginosa (VIM + tmexCD1-torJ1); assay: microbe, parasite or virus in culture; format: cell-based; conditions: VIM + tmexCD1-torJ1
Method: as §1, §2

[11] = tested on: S. enteritidis ATCC 13076; assay: microbe, parasite or virus in culture; format: cell-based; conditions: ATCC 13076
Method: as §1, §2

[12] = tested on: E. coli ATCC 25922; assay: microbe, parasite or virus in culture; format: cell-based; conditions: ATCC 25922
Method: as §1, §2

[13] = tested on: S. aureus ATCC 29213; assay: microbe, parasite or virus in culture; format: cell-based; conditions: ATCC 29213
Method: as §1, §2

[14] = tested on: E. coli B2 (blaNDM-5 + mcr-1); assay: microbe, parasite or virus in culture; format: cell-based; conditions: B2 (blaNDM-5 + mcr-1)
Method: as §1, §2

[15] = tested on: A. baumannii ATCC 19609; assay: microbe, parasite or virus in culture; format: cell-based; conditions: ATCC 19609
Method: as §1, §2

[16] = tested on: E. coli G6 (blaNDM-5); assay: microbe, parasite or virus in culture; format: cell-based; conditions: G6 (blaNDM-5)
Method: as §1, §2

[17] = tested on: E. coli CP131 (mcr-3); assay: microbe, parasite or virus in culture; format: cell-based; conditions: CP131 (mcr-3)
Method: as §1, §2

[18] = tested on: E. coli G92 (mcr-1); assay: microbe, parasite or virus in culture; format: cell-based; conditions: G92 (mcr-1)
Method: as §1, §2

[19] = tested on: S. aureus G16 (RIF^R); assay: microbe, parasite or virus in culture; format: cell-based; conditions: S. aureus G16 (RIF^R); micro-broth dilution CLSI 2018, MHB, 37 °C, 16 to 18 h
Method: as §1, §2

[20] = tested on: E. coli B2; format: cell-based
Method: as §2
(§3) Then, the antibacterial activity of the peptides affected by different temperatures and pH were determined according to the determination steps of MICs test.
(§4) In MHB medium, Na^+, K^+, Mg^2+ and Ca^2+ with the final concentrations of 10 mM, fetal bovine serum, plasma or DMEM medium (Hyclone, Logan, UT, USA) with the final concentrations of 10% was added, and then MIC values were measured to evaluate the effects of different cations, serum and plasma on the antibacterial activity of peptides.
(§5) The peptide was incubated with protease (pepsin, trypsin and papain) (Solarbio, Beijing, China) with a final concentration of 1 mg/mL at 37 °C for 1 h, then the mixture of peptide and protease was heated at 100 °C for 30 min, then centrifuged at 13,000× g for 30 min, and the supernatant was taken for MIC determination.

[21] = tested on: MRSA T144; format: cell-based, Staphylococcus aureus
Method: as §2, §3, §4, §5

GWKKFFKKWKHVWK [GK-4]
MIC [1]: 4 µg/mL
MIC [2]: 16 µg/mL
MIC [3]: 4 µg/mL
MIC [4]: 16 µg/mL
MIC [5]: 2 µg/mL
MIC [6]: 16 µg/mL
MIC [7]: 16 µg/mL
MIC [8]: 8 µg/mL
MIC [9]: 4 µg/mL
MIC [10]: 16 µg/mL
MIC [11]: 4 µg/mL
MIC [12]: 8 µg/mL
MIC [13]: 4 µg/mL
MIC [14]: 2 µg/mL
MIC [15]: 4 µg/mL
MIC [16]: 4 µg/mL
MIC [17]: 2 µg/mL
MIC [18]: 4 µg/mL
MIC [19]: 8 µg/mL
MIC after treatment at 121 °C ([20]; B2): 2 µg/mL
MIC in DMEM (10%) ([20]; B2): 4 µg/mL
MIC in Plasma (10%) ([20]; B2): 2 µg/mL
MIC in Serum (10%) ([20]; B2): 4 µg/mL
MIC in presence of Ca^2+ ([20]; B2): >128 µg/mL
MIC in presence of K^+ ([20]; B2): 2 µg/mL
MIC in presence of Mg^2+ ([20]; B2): 32 µg/mL
MIC in presence of Na^+ ([20]; B2): 2 µg/mL
MIC, Control ([20]; B2): 2 µg/mL
MIC after Papain treatment ([20]; B2, 1 h): >128 µg/mL
MIC after Pepsin treatment ([20]; B2, 1 h): 2 µg/mL
MIC after Trypsin treatment ([20]; B2, 1 h): >128 µg/mL
MIC after treatment at 40 °C ([20]; B2, 1 h): 2 µg/mL
MIC after treatment at 60 °C ([20]; B2, 1 h): 2 µg/mL
MIC after treatment at 80 °C ([20]; B2, 1 h): 2 µg/mL
MIC after treatment at 100 °C ([20]; B2, 1 h): 2 µg/mL
MIC after treatment at pH 2 ([20]; B2, 1 h, pH 2): 1 µg/mL
MIC after treatment at pH 4 ([20]; B2, 1 h, pH 4): 1 µg/mL
MIC after treatment at pH 6 ([20]; B2, 1 h, pH 6): 2 µg/mL
MIC after treatment at pH 8 ([20]; B2, 1 h, pH 8): 1 µg/mL
MIC after treatment at pH 10 ([20]; B2, 1 h, pH 10): 1 µg/mL
MIC after treatment at pH 12 ([20]; B2, 1 h, pH 12): 2 µg/mL
MIC after treatment at 121 °C ([21]; T144): 4 µg/mL
MIC in DMEM (10%) ([21]; T144): 2 µg/mL
MIC in Plasma (10%) ([21]; T144): 4 µg/mL
MIC in Serum (10%) ([21]; T144): 8 µg/mL
MIC in presence of Ca^2+ ([21]; T144): >128 µg/mL
MIC in presence of K^+ ([21]; T144): 4 µg/mL
MIC in presence of Mg^2+ ([21]; T144): 8 µg/mL
MIC in presence of Na^+ ([21]; T144): 2 µg/mL
MIC, Control ([21]; T144): 4 µg/mL
MIC after Papain treatment ([21]; T144, 1 h): >128 µg/mL
MIC after Trypsin treatment ([21]; T144, 1 h): >128 µg/mL
MIC after treatment at 40 °C ([21]; T144, 1 h): 2 µg/mL
MIC after treatment at 60 °C ([21]; T144, 1 h): 2 µg/mL
MIC after treatment at 80 °C ([21]; T144, 1 h): 2 µg/mL
MIC after treatment at 100 °C ([21]; T144, 1 h): 4 µg/mL
MIC after treatment at pH 2 ([21]; T144, 1 h, pH 2): 4 µg/mL
MIC after treatment at pH 4 ([21]; T144, 1 h, pH 4): 4 µg/mL
MIC after treatment at pH 6 ([21]; T144, 1 h, pH 6): 4 µg/mL
MIC after treatment at pH 8 ([21]; T144, 1 h, pH 8): 4 µg/mL
MIC after treatment at pH 10 ([21]; T144, 1 h, pH 10): 4 µg/mL
MIC after treatment at pH 12 ([21]; T144, 1 h, pH 12): 4 µg/mL
